Test results taken from article PMC9496155, “Amaryllidaceae Alkaloids Decrease the Proliferation, Invasion, and Secretion of Clinically Relevant Cytokines by Cultured Human Colon Cancer Cells” (Biomolecules, 2022).

Experiments:
Type in all cases: cell-based, human
HCT-116 cells [1] = test: Adhesion assay (crystal violet), HCT-116; settings: 0.08 µM, 15 h, 0.5% FBS, one experiment
Procedure: To evaluate the effects of the compounds on cell adhesion, 75000 HCT-116 or LoVo cells per well were seeded in 96-well flat-bottom plates in the presence or absence of each compound tested at three concentrations. In the first set of experiments, cells were allowed to adhere for 1, 5, 8, and 24 h and cultured with 10% FBS. Three independent experiments were performed each in sextuplicate to examine the time course of adhesion when grown with 10% FBS and increasing concentrations of each compound. In the second set of experiments cells were allowed to adhere for 15 h in a medium containing only 0.5% FBS to limit the contribution of proliferation to the results.
At the end of the incubation period, the plate was rinsed with phosphate buffered saline (PBS), fixed with 17.5% of formaldehyde at 4 °C for 15 min, and washed with deionized water twice before staining with 0.1% crystal violet (Sigma-Aldrich, Diegem, Belgium) in a 50:50 methanol/water mixture for 15 min. After extensive washes with water to remove any free crystal violet, the dye within the cells was extracted and solubilized in 100 µL of a 33% acetic acid solution and absorbance was measured at 570 nm (680XR, Bio-Rad Laboratories, Berkeley, CA, USA; reference wavelength 610 nm). The mean absorbance of the untreated control well was set at 100% for comparison. […]

HCT-116 cells [2] = test: Invasion assay, Matrigel-coated Boyden chambers, HCT-116; settings: 24 h, corrected for adherent cells
Procedure: Prior to seeding HCT-116 cells in the invasion chambers, the medium was removed and cells were washed twice with phosphate buffered saline and incubated in DMEM lacking FBS for 48 h before seeding at a density of 1 × 10^5 cells/well into the upper portion of Matrigel-coated invasion chambers (Corning Biocoat, Corning, NY, USA), as described previously by our group in [47, 48]. The upper portion of each chamber contained cells suspended in serum-free DMEM containing DMSO vehicle alone or increasing concentrations of the Amaryllidaceae alkaloids NAR, LYC, and HAE. […] The lower portion of each chamber contained DMEM supplemented with 10% FBS. The FBS served as a chemoattractant. A polyethylene terephthalate (PET) membrane, containing 8 μm pores and coated with Matrigel basement membrane matrix, separated the upper and lower portions of the invasion chamber. After 24 h, chambers were removed and the cells that had not invaded were removed from within the chamber using a cotton swab. The cells that had invaded through and adhered to the bottom of the PET membrane separating the chambers were fixed with methanol and stained with 0.5% crystal violet (Sigma-Aldrich, St. Louis, MO, USA). Five random images were taken of the bottom of each membrane using a Cytation 5 Cell Imaging Multi-Mode Reader (Winooski, VT, USA). The cells in each image were counted using Image J (NIH, Bethesda, MD, USA).
To correct for the inhibitory effects of the Amaryllidaceae alkaloids on cell proliferation, cells from the same biological repeat were seeded in parallel in 24-well tissue culture plates at a density of 1 × 10^5 cells/well in DMEM containing 5% FBS (the average of the FBS concentrations in the upper and lower chambers) and supplemented with vehicle or increasing concentrations of the alkaloids. These wells were not coated with Matrigel. The medium was removed, and the adherent cells were trypsinized and counted 24 h after treatment using a hemocytometer. To compare cell invasion across treatments, cell invasion was corrected for adherent cell proliferation and expressed as % vehicle control.

VEGF = test: Luminex assay of VEGF in HCT-116 and LoVo cell supernatants; settings: 0.08 µM; 24 h; both cell lines
Text: We ordered a customized Luminex® assay to quantify 15 targets at once from Biotechne (reference LXSAHM-15; R&D Systems, Abingdon, U.K.). The 15 targets were chosen on the basis of the literature as follows: the relevant metalloproteinases MMP-1, -2, -7, -9, -13 [49] and the cytokines associated with dismal prognosis or shorter disease-free survival period: C-C motif chemokine ligand (CCL) -4, CCL-22, Flt-3 ligand, IL-1β, IL-2, IL-6, IL-8, interferon gamma (IFNγ), vascular endothelial growth factor (VEGF), and pentraxin-3 [50]. Samples were prepared as follows: HCT-116 or LoVo cells were seeded in 6-well plates and allowed to adhere and grow until they reached 70% confluency. The culture medium was replaced by 1.5 mL of culture medium containing only 0.5% of FBS with or without the compounds to be tested (NAR at 80 nM, LYC at 6 µM, and HAE at 6 µM). After 24 h of treatment, supernatants were collected, aliquoted, and kept frozen at −80 °C. Three independent series of samples were prepared. […] We thus decided to concentrate several aliquots of our supernatant samples by centrifugation of 500 µL of supernatant with Amicon Ultra 0.5 mL filters characterized by a 3 kDa cut-off (UFC500324; Millipore, Merck, Hoeilaart, Belgium) leading to a final volume of 150 µL (3.3 times concentrated). The Luminex® assay was conducted according to manufacturer’s recommendations. […]

## O=C1N[C@@H]2C(=C[C@H](O)[C@@H](O)[C@H]2O)c2cc3c(c(O)c21)OCO3 [NAR, narciclasine]
HCT-116 cells [1]
  inhibition of cell adhesion: 39%
HCT-116 cells [2]; 0.04 µM
  cell invasion, % of vehicle control: 41.1 ± 4.3%
HCT-116 cells [2]; 0.08 µM
  cell invasion, % of vehicle control: 13.6 ± 4.8%
VEGF
  VEGF levels, times decreased: up to 5 times
